Measurements as given in article PMC11325214 (2024).

Test system: L-Procaine aptamer (DNA, aptamer) GGCGACAAGGAAAATCCTTCAACGAAGGTGGGTGGCC
Assay: E-AB square wave voltammetry, 3D-printed gold electrode cell
Details: undiluted human serum; in serum; immobilised aptamer; apparent; Hill fit

EC50: 59.2 mM
Compound: CCN(CC)CCOC(=O)c1ccc(N)cc1
